This is an account of results in article PMC11019538, “Biophysics-Guided Lead Discovery of HBV Capsid Assembly Modifiers” (ACS Infectious Diseases, 2024).

Data set [1] concerns HBV DNA replication in HepAD38 cells. Put plainly: HBV DNA replication inhibition assay in HepAD38 cells (7 days, PCR of supernatant DNA). The class given is cell-based, hepatitis B virus. The settings on record: HepAD38 cells; for HBV DNA inhibition (%) at 10 µM: first round of selected compounds. The protocol:
HepAD38 cells were seeded at 50,000 cells/well in collagen-coated 96-well plates. […] The experiment lasted 7 days. On day 7, total DNA was purified from the supernatant using a commercially available kit (DNeasy 96 Blood & Tissue kit, Qiagen). The HBV DNA was amplified in a polymerase chain reaction assay using LightCycler 480 II (Roche), as previously described.[63] All samples were tested in duplicate.

The test system of data set [2] is T lymphoblast CEM-CCRF (CEM) cells. Nature of the data set: MTT cytotoxicity, CEM cells. The class given is cell-based, human. The protocol:
(§1) Human peripheral blood mononuclear (PBM), T lymphoblast CEM-CCRF (herein referred to as CEM cells), African green monkey kidney (Vero), or human liver carcinoma (HepG2) cells were tested via MTT assay using the CellTiter 96 Non-Radioactive Cell Proliferation (Promega) kit as previously described.[63]

For data set [3], the system named is human peripheral blood mononuclear (PBM) cells. Put plainly: MTT cytotoxicity, PBM cells. The class given is cell-based. The protocol:
as §1

Data set [4] deals with human liver carcinoma (HepG2) cells. Put plainly: MTT cytotoxicity, HepG2 cells. The class given is cell-based. The settings on record: HepG2 cells. The protocol: as §1
For data set [5], the system named is African green monkey kidney (Vero) cells. Put plainly: MTT cytotoxicity, Vero cells. The class given is cell-based. The settings on record: Vero cells. The protocol:
as §1

With `Nc1ccn([C@@H]2CS[C@H](CO)O2)c(=O)n1` [3TC, reference compound], the “HBV DNA inhibition (%) at 10 µM” value in data set [1] is listed as 97%. Also, the “% HBV DNA Inh. at 10 μM, trial 1” value in data set [1] (10 μM, trial 1) was 82%.
For the compound `C=CC1CN2CCC1CC2C(O)c1ccnc2ccc(OC)cc12` (stereo not shown) [GT-1], the “HBV DNA inhibition (%) at 10 µM” value in data set [1] is on record as less than 1%.
`CC(CC(C#N)(c1ccccc1)c1ccccc1)N1CCCCC1` (stereo not shown) [GT-2]: the CC50 (as a rule, the concentration giving 50% cytotoxicity) in data set [2] is 16.1 µM; in data set [3], 85.3 µM; in data set [4], 26.4 µM; in data set [5], more than 100 µM. In data set [1], the “HBV DNA inhibition (%) at 10 µM” value is less than 1%.
For `Clc1ccccc1C=Cc1ccnc2ccccc12` [GT-3] the same measures were 15.4 µM, 34 µM, 51.2 µM, 27 µM and 40.4%.
For `CC(O)(c1ccccc1)C(c1ccccc1)C1CCCCN1` (stereo not shown) [GT-4] the same measures were more than 100 µM, more than 100 µM, more than 100 µM, more than 100 µM and less than 1%.
Turning to `Cc1c(CCN)ccc2c1[nH]c1ccccc12` [GT-6], the CC50 in data set [2] is 18.7 µM; in data set [3] it was 47.7 µM; in data set [4], 14.9 µM; in data set [5], 42.6 µM. In addition, in data set [1], the “HBV DNA inhibition (%) at 10 µM” value stood at 27.2%.
In the same order, the values of `Cc1nc(-c2ccccc2)c(Cc2ccccc2O)c(=O)[nH]1` [GT-7] are more than 100 µM, more than 100 µM, more than 100 µM, more than 100 µM and less than 1%.
In the same order, the values of `O=C(CC1C=Cc2ccccc2N1C(=O)c1ccccc1)c1ccccc1` (stereo not shown) [GT-8] are more than 100 µM, more than 100 µM, more than 100 µM, more than 100 µM and less than 1%.
In the same order, the values of `Cc1ccc(CC#N)c(-c2c(CC#N)ccc(C)c2C)c1C` [GT-9] are more than 100 µM, more than 100 µM, 55.3 µM, more than 100 µM and 34.6%.
Turning to `CCC(CO)Nc1nc2ccc(Cl)cc2c2ccccc12` (stereo not shown) [GT-10], the CC50 in data set [2] was determined as 15.2 µM; in data set [3] it was 18.2 µM; in data set [4], 12.9 µM; in data set [5], 14.4 µM. Besides, in data set [1], the “HBV DNA inhibition (%) at 10 µM” value is less than 1%.
In the same order, the values of `N#CC(c1ccccc1)C(C(Cc1ccccc1)=NO)c1ccccc1` (stereo not shown) [GT-11] are 13.3 µM, 63.9 µM, 31.6 µM, 18.9 µM and less than 1%.
In the same order, the values of `NCc1cccc(Oc2ccccc2)c1` [GT-12] are 17 µM, more than 100 µM, more than 100 µM, more than 100 µM and less than 1%.
In the same order, the values of `O=C(NCCc1ccccc1)c1cccnc1` [GT-13] are more than 100 µM, more than 100 µM, more than 100 µM, more than 100 µM and less than 1%.
Take `Fc1ccccc1CNCc1ccccn1` [GT-14]: the 50% cytotoxic concentration (CC50) in data set [2], in data set [3], in data set [4] and in data set [5] was more than 100 µM each time. In addition, the “HBV DNA inhibition (%) at 10 µM” value in data set [1] is reported as less than 1%.
Take `O=C(CCc1ccccc1)Nc1cccnc1` [GT-15]: the CC50 in data set [2], in data set [3], in data set [4] and in data set [5] was more than 100 µM in each case. Also, the “HBV DNA inhibition (%) at 10 µM” value in data set [1] is listed as less than 1%.
Turning to `O=C(OCc1ccccc1)c1cccnc1` [GT-16], the half-maximal cytotoxic concentration (CC50) in data set [2], in data set [3], in data set [4] and in data set [5] was more than 100 µM each time. Besides, the “HBV DNA inhibition (%) at 10 µM” value in data set [1] came out at 1.7%.
